{"source": "patent US9026372B2", "about": "“Methods for providing a system of care for a high-dose oxazaphosphorine drug regimen” (Accentia Biopharmaceuticals, Inc., priority 2007, dated 2015)", "key": {"[1]": {"tested_on": "white blood cell (WBC) count", "from_the_text": "On Day 6, (six days after completion of high-dose cyclophosphamide treatment), patients received G-CSF."}, "[2]": {"tested_on": "aggressive relapsing-remitting multiple sclerosis", "description": "All 9 patients had aggressive relapsing-remitting multiple sclerosis, 8 of whom failed conventional therapy and 1 was untreated. Median age at time of entry was 29 years (range of 20 to 47 years). The mean number of gadolinium enhancing lesions on baseline MRI was 6.5 (range 3-11)."}}, "note": "Like-named read-outs stand apart in the source and are kept apart here."}
{"compound": "O=P1(N(CCCl)CCCl)NCCCO1", "note": "(centres unmarked) [cyclophosphamide]", "values": [{"measurement": "minimum WBC", "setting": "[1]; patient HiCy01, never had GEL, suspected exacerbations", "result": 70}, {"measurement": "minimum WBC", "setting": "[1]; patient HiCy07, went to 0 GEL, single GEL on follow-up MRI", "result": 6}, {"measurement": "minimum WBC count", "setting": "[1]; patient HiCy11, GEL on every follow up", "result": 24}, {"measurement": "minimum WBC", "setting": "[1]; patient HiCy14, went to 0 GEL, single GEL on follow-up MRI", "result": 31}, {"measurement": "minimum WBC count", "setting": "[1]; patient HiCy19, GEL on every follow up, only 6 months of follow-up", "result": 50}, {"measurement": "WBC count (minimum)", "setting": "[1]; patients HiCy05 and HiCy13, within two weeks of treatment, no GEL up to 24 months follow-up", "result": 0}, {"measurement": "minimum WBC count", "setting": "[1]; patients HiCy09 and HiCy15 (both), 0 GEL", "result": 12}, {"measurement": "reduction in disability (EDSS)", "setting": "[2]; 9 patients, at baseline 66% had EDSS of 5.0 or more", "result": 50, "unit": "%"}, {"measurement": "reduction in gadolinium enhancements", "setting": "[2]; at 6 months following 50 mg/kg/day intravenously for four days, 9 patients, baseline mean 6.5 lesions", "result": 90, "unit": "%"}, {"measurement": "reduction in gadolinium enhancements", "setting": "[2]; by 18 months following 50 mg/kg/day intravenously for four days, 9 patients", "result": 94, "unit": "%"}, {"measurement": "adverse outcomes", "setting": "[2]; initial cohort of 9 patients with severe relapsing MS", "result": "no significant adverse outcomes"}, {"measurement": "patients having no disability (EDSS score of 0)", "setting": "[2]; of 9 patients, after treatment", "result": 3, "unit": "patients"}, {"measurement": "patients with EDSS score of 1", "setting": "[2]; of 9 patients, after treatment", "result": 1, "unit": "patient"}, {"measurement": "patients with an exacerbation during follow-up", "setting": "[2]; of 9 patients, started on conventional MS therapy at 18 months", "result": "one"}]}
